Test results reported in US11345699B2, “Apoptosis signal-regulating kinase 1 inhibitors and methods of use thereof” (Enanta Pharmaceuticals, Inc., priority 2018, dated 2022).

What follows are compounds tested against ASK1 (Homo sapiens (Human), UniProt Q99683) (assay: HTRF KinEASE Assay (TR-FRET), inhibition of ASK1). Settings: ASK1 kinase, 100 μM ATP, 1 μM STK3 peptide substrate, compound 0 to 10 μM.
Format: biochemical
Description: Assay HTRF® KinEASE™ Assay
ASK1 was purchased from Thermofisher (Catalogue #PV4011), ATP was purchased from Sigma (Catalogue #A7699), HTRF® KinEASE™ Assay System was obtained from Cisbio (Bedford, Mass.). ½ Area plate was purchased from Perkin Elmer (Catalogue ##6005560). HTRF® KinEASE™-STK is a generic method for measuring serine/threonine kinase activities using a time-resolved fluorescence resonance energy transfer (TR-FRET) immunoassay. The IC50 value for each compound was determined in the presence of compound (various concentration from 0 to 10 μM) and a fixed amount of ATP and peptide substrates. The test compound, 1 μM STK3 peptide substrate, and […] of ASK1 kinase are incubated with kinase reaction buffer containing 50 mM HEPES Ph 7.5, 0.01% BRIJ-35, 10 mM MgCl2, and 1 mM EGTA for 30 minutes. 100 μM ATP is added to start kinase reaction and incubated for 3 hours. The STK3-antibody labeled with Eu^3+-Cryptate and 125 nM streptavidin-XL665 are mixed in a single addition with stop reagents provided by the Cisbio kit used to stop the kinase reaction. Fluorescence is detected using an Envision Multilabeled 2014 reader from PerkinElmer. The Fluorescence is measured at 615 nm (Cryptate) and 665 nm (XL665) and a ratio of 665 nm/615 nm is calculated for each well. The resulting TR-FRET is proportional to the phosphorylation level. Staurosporine was used as the positive control. IC50 was determined by Xlfit 5.3.
By using above method, the inhibition of ASK1 was evaluated for the compounds of Formula (I). Example numbers correspond to those in Table 5.

Chain of ASK1 (Q99683 whole entry): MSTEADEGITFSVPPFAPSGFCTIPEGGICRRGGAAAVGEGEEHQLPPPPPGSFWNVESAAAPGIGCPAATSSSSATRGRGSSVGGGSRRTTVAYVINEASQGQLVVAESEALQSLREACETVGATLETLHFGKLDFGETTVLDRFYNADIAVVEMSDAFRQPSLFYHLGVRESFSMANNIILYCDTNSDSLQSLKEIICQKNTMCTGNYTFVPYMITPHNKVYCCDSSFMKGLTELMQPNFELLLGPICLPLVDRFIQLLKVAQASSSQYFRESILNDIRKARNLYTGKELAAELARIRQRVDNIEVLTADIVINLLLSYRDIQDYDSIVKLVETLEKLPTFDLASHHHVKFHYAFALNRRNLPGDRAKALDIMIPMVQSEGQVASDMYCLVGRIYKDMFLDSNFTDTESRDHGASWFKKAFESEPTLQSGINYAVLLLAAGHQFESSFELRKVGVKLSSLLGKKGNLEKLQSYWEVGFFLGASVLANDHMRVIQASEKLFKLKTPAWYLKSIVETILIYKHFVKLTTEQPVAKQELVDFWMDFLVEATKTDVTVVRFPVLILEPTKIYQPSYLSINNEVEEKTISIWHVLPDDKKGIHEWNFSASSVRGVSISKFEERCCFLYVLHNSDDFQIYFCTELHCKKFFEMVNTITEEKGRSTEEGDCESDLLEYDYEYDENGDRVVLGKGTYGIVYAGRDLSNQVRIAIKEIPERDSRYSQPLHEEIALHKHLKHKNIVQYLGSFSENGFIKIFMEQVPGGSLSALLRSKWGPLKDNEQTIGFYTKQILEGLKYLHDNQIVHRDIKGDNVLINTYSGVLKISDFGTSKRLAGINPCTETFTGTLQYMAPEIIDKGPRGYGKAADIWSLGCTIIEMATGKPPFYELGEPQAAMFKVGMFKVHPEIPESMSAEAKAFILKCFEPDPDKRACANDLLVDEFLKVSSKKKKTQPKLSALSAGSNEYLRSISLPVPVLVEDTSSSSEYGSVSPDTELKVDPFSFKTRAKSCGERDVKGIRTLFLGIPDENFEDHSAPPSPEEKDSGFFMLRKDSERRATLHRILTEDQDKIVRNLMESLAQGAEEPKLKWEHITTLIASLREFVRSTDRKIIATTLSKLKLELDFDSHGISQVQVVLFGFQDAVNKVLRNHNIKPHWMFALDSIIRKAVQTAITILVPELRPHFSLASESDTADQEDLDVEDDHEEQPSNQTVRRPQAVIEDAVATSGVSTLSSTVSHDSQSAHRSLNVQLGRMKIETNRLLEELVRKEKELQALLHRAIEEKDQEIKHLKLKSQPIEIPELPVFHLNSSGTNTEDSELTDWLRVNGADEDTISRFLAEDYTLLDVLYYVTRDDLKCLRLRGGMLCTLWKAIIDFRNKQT

`C[C@H](CO)n1nnnc1-c1cccc(NC(=O)c2cc3c(cc2F)CCN(C2CC2)C3)n1` [Example 120] and `C[C@H](CO)n1nnnc1-c1cccc(NC(=O)c2cc3c(cc2F)CCN(S(=O)(=O)C2CC2)C3)n1` [Example 119] fall in the same range of IC50: 10 to 100 nM for the first, 10 to 100 nM for the second.

`C[C@H](CO)n1nnnc1-c1cccc(NC(=O)c2cc3c(cc2F)CCN(Cc2ccc(F)cc2)C3)n1` [Example 121] and `C[C@H](CO)n1nnnc1-c1cccc(NC(=O)c2cc3c(cc2F)CCN(S(=O)(=O)c2ccc(F)cc2)C3)n1` [Example 137] fall in the same range of IC50: 10 to 100 nM for the first, 10 to 100 nM for the second.

First: COCCOC(=O)N1CCc2cc(F)c(C(=O)Nc3cccc(-c4nnnn4[C@H](C)CO)n3)cc2C1 [Example 110]
Second: CCOC(=O)N1CCc2cc(F)c(C(=O)Nc3cccc(-c4nnnn4[C@H](C)CO)n3)cc2C1 [Example 109]
The IC50 of the first is higher: 10 to 100 nM for the first, 1.25 to 10 nM for the second.

`COCCC(=O)N1CCc2cc(OC)c(C(=O)Nc3cccc(-c4nnnn4[C@H](C)CO)n3)cc2C1` [Example 124] and `COCCOC(=O)N1CCc2cc(OC)c(C(=O)Nc3cccc(-c4nnnn4[C@H](C)CO)n3)cc2C1` [Example 96] cannot be ordered by IC50: < 1.25 nM for the first, < 1.25 nM for the second.

`C[C@H](CO)n1nnnc1-c1cccc(NC(=O)c2cc3c(cn2)CCN(c2ncccn2)C3)n1` [Example 108, (R)—N-(6-(1-(1-hydroxypropan-2-yl)-1H-tetrazol-5-yl)pyridin-2-yl)-6-(pyrimidin-2-yl)-5,6,7,8-tetrahydro-2,6-naphthyridine-3-carboxamide] and `C[C@H](CO)n1nnnc1-c1cccc(NC(=O)c2cc3c(cc2F)CCN(c2ncccn2)C3)n1` [Example 123] fall in the same range of IC50: 1.25 to 10 nM for the first, 1.25 to 10 nM for the second.

`COc1cc2c(cc1C(=O)Nc1cccc(-c3nnnn3[C@H](C)CO)n1)CN(C(=O)[C@@H](O)CC(C)C)CC2` [Example 113] and `CONC(=O)N1CCc2cc(OC)c(C(=O)Nc3cccc(-c4nnnn4[C@H](C)CO)n3)cc2C1` [Example 147] cannot be ordered by IC50: < 1.25 nM for the first, < 1.25 nM for the second.

`C[C@H](CO)n1nnnc1-c1cccc(NC(=O)c2cc3c(cc2F)CCN(C(=O)NC2CC2)C3)n1` [Example 134] and `CCNC(=O)N1CCc2cc(F)c(C(=O)Nc3cccc(-c4nnnn4[C@H](C)CO)n3)cc2C1` [Example 111] fall in the same range of IC50: 1.25 to 10 nM for the first, 1.25 to 10 nM for the second.

`C[C@H](CO)n1nnnc1-c1cccc(NC(=O)c2cc3c(cc2F)CCN(C(=O)N2CCCCC2)C3)n1` [Example 116] and `C[C@H](CO)n1nnnc1-c1cccc(NC(=O)c2cc3c(cc2F)CCN(C(=O)N2CCC2)C3)n1` [Example 135] fall in the same range of IC50: 1.25 to 10 nM for the first, 1.25 to 10 nM for the second.

`COc1cc2c(cc1C(=O)Nc1cccc(-c3nnnn3[C@H](C)CO)n1)CN(C(=O)C1(O)CC1)CC2` [Example 114] and `COc1cc2c(cc1C(=O)Nc1cccc(-c3nnnn3[C@H](C)CO)n1)CN(C(=O)N1CC[C@@H](O)C1)CC2` [Example 144, N-(6-(1-((R)-1-hydroxypropan-2-yl)-1H-tetrazol-5-yl)pyridin-2-yl)-2-((R)-3-hydroxypyrrolidine-1-carbonyl)-6-methoxy-1,2,3,4-tetrahydroisoquinoline-7-carboxamide] cannot be ordered by IC50: < 1.25 nM for the first, < 1.25 nM for the second.

First: CCOC(=O)N1CCc2cc(F)c(C(=O)Nc3cccc(-c4nncn4[C@@H](C)CF)n3)cc2C1 [Example 107]
Second: COc1cc2c(cc1C(=O)Nc1cccc(-c3nncn3C(C)C)n1)CN(C(=O)OC(C)(C)C)CC2 [Example 5, tert-butyl 7-((6-(4-isopropyl-4H-1,2,4-triazol-3-yl)pyridin-2-yl)carbamoyl)-6-methoxy-3,4-dihydroisoquinoline-2(1H)-carboxylate]
The IC50 of the first is lower: 1.25 to 10 nM for the first, 10 to 100 nM for the second.

`COc1cc2c(cc1C(=O)Nc1cccc(-c3nncn3C(C)C)n1)CN(C(=O)C(C)(C)CO)CC2` [Example 126, 2-(3-hydroxy-2,2-dimethylpropanoyl)-N-(6-(4-isopropyl-4H-1,2,4-triazol-3-yl)pyridin-2-yl)-6-methoxy-1,2,3,4-tetrahydroisoquinoline-7-carboxamide] and `COc1cc2c(cc1C(=O)Nc1cccc(-c3nncn3C(C)C)n1)CN(C(=O)CN1CCOC1=O)CC2` [Example 148] cannot be ordered by IC50: < 1.25 nM for the first, < 1.25 nM for the second.

First: C[C@H](CO)n1nnnc1-c1cccc(NC(=O)c2cc3c(cc2F)CCN(c2ccccn2)C3)n1 [Example 122]
Second: COc1cc2c(cc1C(=O)Nc1cccc(-c3nnnn3[C@H](C)CO)n1)CN(c1cccnc1)CC2 [Example 150, (R)—N-(6-(1-(1-hydroxypropan-2-yl)-1H-tetrazol-5-yl)pyridin-2-yl)-6-methoxy-2-(pyridin-3-yl)-1,2,3,4-tetrahydroisoquinoline-7-carboxamide]
The IC50 of the first is higher: 1.25 to 10 nM for the first, < 1.25 nM for the second. The second is the more potent here.

`COc1cc2c(cc1C(=O)Nc1cccc(-c3nnnn3[C@H](C)CO)n1)CN(C(=O)c1ccccn1)CC2` [Example 101] and `COc1cc2c(cc1C(=O)Nc1cccc(-c3nnnn3[C@H](C)CO)n1)CN(C(=O)CN1CCOC1=O)CC2` [Example 149] cannot be ordered by IC50: < 1.25 nM for the first, < 1.25 nM for the second.

For `CC(C)n1cnnc1-c1cccc(NC(=O)c2cc3c(cn2)CCN(S(=O)(=O)N(C)C)C3)n1` [Example 2, 6-(N,N-dimethylsulfamoyl)-N-(6-(4-isopropyl-4H-1,2,4-triazol-3-yl)pyridin-2-yl)-5,6,7,8-tetrahydro-2,6-naphthyridine-3-carboxamide], the IC50 was 10 to 100 nM.
